From ChEMBL document CHEMBL5032511, “Improving Druggability of Novel Diarylpyrimidine NNRTIs by a Fragment-Based Replacement Strategy: From Biphenyl-DAPYs to Heteroaromatic-Biphenyl-DAPYs” (J Med Chem, 2021) come the findings set out here.

The nature of data set [1]: Selectivity index, ratio of CC50 for mock infected human MT4 cells to IC50 for HIV1 IIIB infected human MT4 cells.
For data set [2], the system named is Human immunodeficiency virus 1. The data set can be described thus: Anti-viral activity against HIV1 harboring RT L100I mutant infected […] cells assessed as protection against virus-induced cytopathic effect by MTT assay. It counts as functional, organism-based. The settings on record: Human immunodeficiency virus 1, MT4.
For data set [3], the system named is Human immunodeficiency virus 1. The data set can be described thus: Antiviral activity against HIV1 IIIB infected human MT4 cells assessed as protection against virus-induced cytopathic effect by MTT assay. It counts as functional, organism-based. To be noted: Human immunodeficiency virus 1, IIIB.
Data set [4] can be described thus: Cytotoxicity against mock infected human MT4 cells by MTT assay.
In data set [5] the test system is Human immunodeficiency virus 1. Description: Anti-viral activity against HIV1 harboring RT K103N mutant infected […] cells assessed as protection against virus-induced cytopathic effect by MTT assay. The data set is classed as functional, organism-based. To be noted: Human immunodeficiency virus 1, MT4.
Data set [6] has as its system Human immunodeficiency virus 1. Description: Anti-viral activity against HIV1 harboring RT E138K mutant infected […] cells assessed as protection against virus-induced cytopathic effect by MTT assay. It counts as functional, organism-based. The settings on record: Human immunodeficiency virus 1, MT4.
Data set [7] deals with Human immunodeficiency virus type 1 reverse transcriptase (Human immunodeficiency virus 1, UniProt Q72547). Description: Inhibition of recombinant wild-type HIV1 p66/p51 reverse transcriptase assessed as inhibition of [3H][…] incorporation using poly (rA) as templates incubated for 40 mins by spectrofluorometer.
For data set [8], the system named is Human immunodeficiency virus 1. Description: Anti-viral activity against HIV1 harboring RT Y181C mutant infected […] cells assessed as protection against virus-induced cytopathic effect by MTT assay. It counts as functional, organism-based. To be noted: Human immunodeficiency virus 1, MT4.
Data set [9] concerns Human immunodeficiency virus 1. The data set can be described thus: Anti-viral activity against HIV1 harboring RT Y188L mutant infected […] cells assessed as protection against virus-induced cytopathic effect by MTT assay. The settings on record: Human immunodeficiency virus 1, MT4. It counts as functional, organism-based.

As to `N#Cc1ccc(Nc2nccc(Nc3c(F)cc(-c4cncnc4)cc3F)n2)cc1`, in data set [1], the selectivity ratio was 229. The EC50 came to 1.79 µM in data set [2], 0.0119 µM in data set [3], 0.326 µM in data set [5] and 0.137 µM in data set [6]. The CC50 in data set [4] was found to be 2.7 µM. Besides, the IC50 in [7] came to 0.087 µM.

Regarding `N#Cc1ccc(Nc2nccc(Nc3c(F)cc(-c4cccnc4)cc3F)n2)cc1`, the EC50 came to 0.473 µM in data set [8]; 0.583 µM in data set [2]; 0.0074 µM in [3]; 0.223 µM in [5]; 0.149 µM in [6]. Also, the selectivity ratio in [1] was 32700. The molecule further came in with a CC50 in [4] of 242 µM. Moreover, the IC50 in data set [7] worked out at 0.058 µM.

With `N#Cc1ccc(Nc2nccc(Nc3c(F)cc(-c4cc(F)nc(F)c4)cc3F)n2)cc1`, the EC50 in data set [8] came out at 0.476 µM; in data set [2] it was 0.898 µM; in [3], 0.0056 µM; in data set [5], 0.199 µM; in data set [6], 0.057 µM. Moreover, the selectivity ratio in [1] is 1970. Moreover, in data set [4], the CC50 turned out to be 11 µM. The IC50 in [7] was determined as 0.013 µM.

Regarding `N#Cc1ccc(Nc2nccc(Nc3c(F)cc(-c4ccnc(F)c4F)cc3F)n2)cc1`, the EC50 in data set [8] is 0.0213 µM; in data set [2] it was 0.063 µM; in data set [3] it was 0.002 µM; in data set [5], 0.0115 µM; in data set [6] it was 0.0135 µM; in [9] it was 1.64 µM. The selectivity ratio in [1] is > 147000. Further, the CC50 in data set [4] is > 286 µM. The IC50 in [7] was determined as 0.0083 µM.

Regarding `COc1cc(-c2cc(F)c(Nc3ccnc(Nc4ccc(C#N)cc4)n3)c(F)c2)ccn1`, the EC50 in [8] was 0.389 µM; in data set [2] it was 0.645 µM; in data set [3], 0.013 µM; in data set [5], 0.239 µM; in data set [6], 0.26 µM. Moreover, in data set [1], the selectivity ratio was 501. In data set [4], this molecule came in with a CC50 of 6.7 µM. The IC50 in data set [7] was 0.03 µM.

For the molecule `N#Cc1ccc(Nc2nccc(Nc3c(F)cc(-c4ccncc4)cc3F)n2)cc1`, the EC50 was determined as 0.015 µM in data set [8]; 0.0204 µM in [2]; 0.008 µM in data set [5]; 0.004 µM in data set [6]; 0.417 µM in data set [9]. Moreover, the IC50 in [7] is 0.0074 µM.

In the case of `Cc1cc(-c2cc(F)c(Nc3ccnc(Nc4ccc(C#N)cc4)n3)c(F)c2)ccn1`, the EC50 in data set [8] stood at 0.144 µM; in data set [2], 0.383 µM; in [3] it was 0.0041 µM; in data set [5], 0.0777 µM; in data set [6], 0.052 µM; in data set [9], 1.09 µM. Moreover, the selectivity ratio in data set [1] came to 777. In data set [4], this molecule showed a CC50 of 3.2 µM. For the same molecule, the IC50 in data set [7] stood at 0.029 µM.

Regarding `N#Cc1ccc(Nc2nccc(Nc3c(F)cc(-c4csc5ccccc45)cc3F)n2)cc1`, the EC50 in data set [8] turned out to be 6.21 µM; in data set [2], 6.45 µM; in data set [3], 0.124 µM; in data set [5], 5.79 µM; in [6], 0.601 µM; in data set [9] it was 7.48 µM. The selectivity ratio in data set [1] was determined as 132. In data set [4], this molecule had a CC50 of 16 µM. The IC50 in [7] worked out at 0.059 µM.

As for `N#Cc1ccc(Nc2nccc(Nc3c(F)cc(-c4ccc(N)cc4)cc3F)n2)cc1`, the EC50 is 0.482 µM in data set [8]; 0.561 µM in [2]; 0.0092 µM in data set [3]; 0.144 µM in data set [5]; 0.037 µM in [6]; 1.18 µM in [9]. Also, the selectivity ratio in [1] is > 32900. Also, the CC50 in [4] is > 303 µM. In [7], the IC50 turned out to be 0.037 µM.

On to `N#Cc1ccc(Nc2nccc(Nc3c(F)cc(-c4ccsc4)cc3F)n2)cc1`, for which the EC50 worked out at 0.212 µM in data set [8]; 0.301 µM in [2]; 0.0039 µM in data set [3]; 0.171 µM in data set [5]; 0.014 µM in data set [6]; 1.04 µM in [9]. Moreover, the selectivity ratio in data set [1] is 14000. Half-maximal cytotoxicity in data set [4] (CC50) was put at 55.4 µM. Further, the IC50 in data set [7] is 0.011 µM.

As for `N#Cc1ccc(Nc2nccc(Nc3c(F)cc(-c4ccco4)cc3F)n2)cc1`, the EC50 was determined as 0.084 µM in data set [8]; 0.086 µM in data set [2]; 0.0021 µM in data set [3]; 0.071 µM in data set [5]; 0.01 µM in data set [6]; 2.17 µM in data set [9]. Also, in [1], the selectivity ratio is 7910. Moreover, the CC50 in data set [4] came out at 16.6 µM. Moreover, in data set [7], the IC50 was found to be 0.01 µM.

`N#Cc1ccc(Nc2nccc(Nc3c(F)cc(-c4ccnc(-c5ccnc(Cl)c5)c4)cc3F)n2)cc1`: the EC50 in [8] came to 0.779 µM; in data set [2] it was 1.15 µM; in data set [3], 0.0168 µM; in data set [5], 0.176 µM; in data set [6], 0.16 µM. Also, in [1], the selectivity ratio came to 3070. Besides, in data set [4], the CC50 amounted to 51 µM. Besides, the IC50 in data set [7] is 0.11 µM.

As to `N#Cc1ccc(Nc2nccc(Nc3c(F)cc(-c4cn[nH]c4)cc3F)n2)cc1`, the selectivity ratio in data set [1] was 298. Also, the EC50 in data set [3] worked out at 0.01 µM; in data set [5], 0.251 µM; in [6] it was 0.101 µM. The CC50 in data set [4] is 3.1 µM. Further, the IC50 in data set [7] amounted to 0.043 µM.

In the case of `Cc1cc(C#Cc2ccccn2)cc(C)c1Oc1ccnc(Nc2ccc(C#N)cc2)n1`, the EC50 in data set [3] was found to be 0.003 µM.

Regarding `N#Cc1ccc(Nc2nccc(Nc3c(F)cc(-c4ccncc4F)cc3F)n2)cc1`, the EC50 came to 0.007 µM in data set [8]; 0.0074 µM in data set [2]; 0.0013 µM in [3]; 0.0019 µM in data set [5]; 0.0023 µM in [6]; 0.092 µM in [9]. In [1], the selectivity ratio was 2570. Also, in [4], the 50% cytotoxic concentration (CC50) was found to be 3.3 µM. In addition, in data set [7], the IC50 was 0.0091 µM.

In the case of `N#Cc1ccc(Nc2nccc(Nc3c(F)cc(-c4ccnc(F)c4)cc3F)n2)cc1`, the EC50 was 0.08 µM in data set [8]; 0.397 µM in [2]; 0.0038 µM in data set [3]; 0.042 µM in data set [5]; 0.0143 µM in [6]; 1.26 µM in data set [9]. Also, the selectivity ratio in [1] came to 1310. In addition, in [4], the CC50 was determined as 5 µM. For the same molecule, the IC50 in data set [7] was 0.011 µM.

On to `N#Cc1ccc(Nc2nccc(Nc3c(F)cc(-c4ccnc(Cl)c4Cl)cc3F)n2)cc1`, for which the EC50 was found to be 0.073 µM in data set [8]; 0.325 µM in data set [2]; 0.0055 µM in data set [3]; 0.048 µM in [5]; 0.039 µM in [6]; 1.64 µM in data set [9]. The selectivity ratio in data set [1] was 3670. For the same molecule, the 50% cytotoxic concentration (CC50) in data set [4] worked out at 20 µM. Moreover, the IC50 in data set [7] turned out to be 0.016 µM.

In the case of `N#Cc1ccc(Nc2nccc(Nc3c(F)cc(-c4coc5ccccc45)cc3F)n2)cc1`, the EC50 was found to be 2.75 µM in [8]; 3.45 µM in data set [2]; 0.044 µM in data set [3]; 1.3 µM in data set [5]; 0.335 µM in data set [6]; 6.34 µM in [9]. In addition, the selectivity ratio in [1] is 1990. In data set [4], this molecule displayed a CC50 of 87 µM. In data set [7], the IC50 came out at 0.028 µM.

In the case of `Cc1cc(C#Cc2ccccc2)cc(C)c1Oc1ccnc(Nc2ccc(C#N)cc2)n1`, the EC50 in data set [3] is 0.038 µM.

`N#Cc1ccc(Nc2nccc(Nc3c(F)cc(-c4ccnc(Cl)c4)cc3F)n2)cc1`: the EC50 is 0.254 µM in data set [8]; 0.415 µM in data set [2]; 0.0068 µM in [3]; 0.101 µM in [5]; 0.061 µM in data set [6]; > 1.54 µM in [9]. In addition, in [1], the selectivity ratio is 622. The same molecule showed a CC50 in data set [4] of 4.2 µM. The IC50 in data set [7] turned out to be 0.014 µM.

In the case of `Cc1cc(-c2cc(F)c(Nc3ccnc(Nc4ccc(C#N)cc4)n3)c(F)c2)cc(C)n1`, the selectivity ratio in [1] worked out at 21. Also, the EC50 in data set [3] is 0.056 µM. The same molecule displayed a CC50 in data set [4] of 1.2 µM. In [7], the IC50 came out at 0.336 µM.

For `N#Cc1ccc(Nc2nccc(Nc3c(F)cc(-c4ccoc4)cc3F)n2)cc1`, the EC50 in data set [8] is 0.114 µM; in data set [2], 0.1 µM; in data set [3], 0.0032 µM; in data set [5], 0.035 µM; in [6], 0.013 µM; in data set [9] it was 2.18 µM. Further, the selectivity ratio in [1] was 3290. This molecule also showed a CC50 in [4] of 10.6 µM. Further, the IC50 in data set [7] was 0.01 µM.

As to `N#Cc1ccc(Nc2nccc(Nc3c(F)cc(-c4cc(Cl)nc(Cl)c4)cc3F)n2)cc1`, in data set [1], the selectivity ratio amounted to 97. Also, the EC50 in data set [3] was found to be 0.056 µM; in [5] it was 1.09 µM; in data set [6], 0.311 µM. The CC50 in data set [4] worked out at 5.4 µM. The IC50 in [7] is 0.096 µM.

On to `N#Cc1ccc(Nc2nccc(Nc3c(F)cc(-c4cccs4)cc3F)n2)cc1`, for which the EC50 stood at 0.136 µM in data set [8]; 0.363 µM in [2]; 0.0041 µM in data set [3]; 0.102 µM in data set [5]; 0.011 µM in data set [6]; 1.13 µM in data set [9]. Moreover, the selectivity ratio in data set [1] was > 74600. Moreover, the CC50 in data set [4] was > 308 µM. Besides, the IC50 in [7] was 0.0059 µM.

With `O=C1Nc2ccc(Cl)cc2[C@@](C#CC2CC2)(C(F)(F)F)O1` [EFAVIRENZ], the CC50 in data set [4] is > 6.33 µM. Besides, the values for the EC50 in data set [6] and in data set [9] were 0.0075 µM and 0.269 µM, respectively.

Take `Cc1ccnc2c1NC(=O)c1cccnc1N2C1CC1` [NEVIRAPINE]: the CC50 in [4] was > 15 µM. Further, the EC50 in data set [6] worked out at 0.288 µM.
